Data taken from US20120190666A1, “Heteroaryl Compounds as PIKK Inhibitors” (Amgen Inc., priority 2009, published 2012).

Legend:
[1] = target: mTOR (Homo sapiens, UniProt P42345); test: mTOR LanthaScreen (TR-FRET, phosphorylation of 4EBP1); type: biochemical; settings: phosphorylation of GFP-4E-BP1, 10 μM ATP, 90 minutes
Procedure: The mTOR LanthaScreen is a TR-FRET assay measuring the phosphorylation of mTOR's substrate 4EBP1. 384 well compound plates were prepared containing 1 μl of compound per well starting at 5 mM and diluted 1:2 across the row, resulting in a 22 well serial dilution. 24 μl of assay buffer (Invitrogen, PV4794) with 2 mM DTT was added to the compound plate in rows 1-24 using the VELOCITY 11™ VPREP™ 384 ST resulting in a DMSO concentration of 4%. The compound plate was mixed and 2.5 μl of serially diluted compound or controls was added to the assay plate (Costar, 3658).
The assay was conducted on the PerkinElmer® FlexDrop PLUS. A 5 μl mix of 800 nM GFP-4E-BP1 (Invitrogen, PV4759) and 20 μM ATP (Amgen) was added to rows 1-24. 2.5 μl of 0.6 μg/ml of mTOR Enzyme (Amgen) was added to rows 1-23. 2.5 μl of assay buffer was added to row 24 for the low control. The final concentration of the compounds was 50 μM serially diluted to 23.84 pM in 1% DMSO. […] The final concentrations in the assay reagents were 400 nM GFP-4E-BP1, 10 μM of ATP and 0.15 μg/ml of mTOR enzyme. The compound, enzyme, and substrate were incubated for 90 minutes. At this point, 10 μl of stop solution was added (20 mM Tris, pH 7.5 (Invitrogen, 15567-027), 0.02% Sodium Azide (Teknova, S0208), 0.01% NP-40 (Roche, 11754599001), 20 mM EDTA (Invitrogen, 15575-038) and 4 nM of Tb-anti-p4E-BP1 (Invitrogen, PV4758)) for a final concentration of 2 nM of Tb-anti-p4E-BP1.
Sixty minutes later the plates were read on the PerkinElmer® EnVision™ 2103 Multilable Reader using the Excitation filter 340 nm and the Emission filters 520 nm and 495 nm.

[2] = target: T1, PI3Kα (Homo sapiens, UniProt P42336); test: In vitro PI3K AlphaScreen assay, PI3Kα; type: biochemical; settings: PI(4,5)P2 substrate, 20 minutes at room temperature, read-out: P13Kalpha IC50 um
T1 construct: Full length p110 subunits of PI3K α, β and δ, N-terminally labeled with polyHis tag; polyHis (N); made in house; host or cells: Sf9 insect cells (baculovirus)
T1 sequence (P42336 whole entry): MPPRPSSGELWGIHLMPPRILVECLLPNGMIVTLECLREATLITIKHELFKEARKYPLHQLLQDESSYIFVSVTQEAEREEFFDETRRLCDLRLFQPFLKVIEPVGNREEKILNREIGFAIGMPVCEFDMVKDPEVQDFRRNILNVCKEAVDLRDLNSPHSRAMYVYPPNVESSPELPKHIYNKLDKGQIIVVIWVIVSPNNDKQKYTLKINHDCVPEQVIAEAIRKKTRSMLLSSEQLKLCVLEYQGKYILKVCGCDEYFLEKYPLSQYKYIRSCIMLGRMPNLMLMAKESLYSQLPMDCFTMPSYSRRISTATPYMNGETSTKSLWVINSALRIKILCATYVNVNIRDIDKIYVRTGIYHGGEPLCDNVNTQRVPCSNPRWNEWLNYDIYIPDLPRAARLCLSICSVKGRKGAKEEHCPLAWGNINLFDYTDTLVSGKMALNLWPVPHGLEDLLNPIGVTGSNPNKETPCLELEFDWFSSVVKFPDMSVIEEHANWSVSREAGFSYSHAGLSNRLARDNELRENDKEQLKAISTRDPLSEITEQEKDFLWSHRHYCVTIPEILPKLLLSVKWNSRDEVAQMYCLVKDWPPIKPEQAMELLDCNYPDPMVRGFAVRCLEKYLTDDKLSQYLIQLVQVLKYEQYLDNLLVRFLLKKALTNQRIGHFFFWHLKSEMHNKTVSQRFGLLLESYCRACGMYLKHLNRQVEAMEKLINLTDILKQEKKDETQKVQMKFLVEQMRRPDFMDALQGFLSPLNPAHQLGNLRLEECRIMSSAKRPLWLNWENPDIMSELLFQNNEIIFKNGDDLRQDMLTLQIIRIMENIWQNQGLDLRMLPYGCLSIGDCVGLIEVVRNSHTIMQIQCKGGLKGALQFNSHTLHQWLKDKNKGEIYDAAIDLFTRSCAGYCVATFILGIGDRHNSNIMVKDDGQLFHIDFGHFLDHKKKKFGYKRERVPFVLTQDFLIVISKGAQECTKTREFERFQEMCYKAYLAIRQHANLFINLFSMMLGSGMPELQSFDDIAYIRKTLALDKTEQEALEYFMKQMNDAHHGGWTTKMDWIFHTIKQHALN
T1 sequence (P27986 whole entry partner): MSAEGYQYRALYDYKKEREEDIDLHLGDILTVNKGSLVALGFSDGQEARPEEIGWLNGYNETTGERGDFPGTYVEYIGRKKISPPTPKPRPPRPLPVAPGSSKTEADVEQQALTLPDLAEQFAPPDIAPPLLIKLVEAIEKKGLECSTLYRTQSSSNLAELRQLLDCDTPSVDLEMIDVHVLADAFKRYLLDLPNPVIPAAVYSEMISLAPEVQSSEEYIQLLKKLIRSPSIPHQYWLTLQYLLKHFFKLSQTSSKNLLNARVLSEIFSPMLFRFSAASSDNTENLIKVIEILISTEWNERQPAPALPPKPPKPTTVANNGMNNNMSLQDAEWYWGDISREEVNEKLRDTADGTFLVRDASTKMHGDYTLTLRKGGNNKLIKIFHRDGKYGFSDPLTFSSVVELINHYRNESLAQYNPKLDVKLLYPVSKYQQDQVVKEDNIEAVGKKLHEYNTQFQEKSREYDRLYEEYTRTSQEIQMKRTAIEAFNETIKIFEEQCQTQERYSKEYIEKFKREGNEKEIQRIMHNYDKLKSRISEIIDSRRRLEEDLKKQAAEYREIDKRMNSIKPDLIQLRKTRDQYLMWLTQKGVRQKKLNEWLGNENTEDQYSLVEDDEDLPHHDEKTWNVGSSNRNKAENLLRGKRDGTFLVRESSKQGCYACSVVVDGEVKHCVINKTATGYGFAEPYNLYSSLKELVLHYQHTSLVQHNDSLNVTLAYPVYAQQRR
Procedure: The PI3K AlphaScreen® assay (PerkinElmer, Waltham, Mass.) measures the activity of a panel of four phosphoinositide 3-kinases: PI3Kα, PI3KIβ, PI3Kγ, and PI3Kδ. Each of these enzymes phosphorylates the 3′-hydroxyl group on phosphatidylinositiol (4,5)-bisphosphate (PIP2) to produce phosphatidylinositol (3,4,5)-trisphosphate (PIP3). This phosphorylation activity is measured using a GST-tagged PIP3 binding protein (Echelon Biosciences, Salt Lake City, Utah), an anti-GST-tagged Acceptor bead, and streptavidin-Donor bead. The interaction of biotinylated-PIP3 analog (IP4) and the PIP3 binding protein brings both Acceptor and Donor beads together producing, upon excitation of the Donor beads at 680 nm, a singlet oxygen species leading to the luminescent AlphaScreen® signal. When PIP3 is produced via phosphorylation of PIP2 by a PI3K, PIP3 competes with biotinylated-PIP3 analog (IP4) for binding to the PIP3 binding protein. In the absence of this interaction, proximity of the Donor and Acceptor beads is decreased, producing a loss of luminescent signal which is […] to PI3K activity. […] The enzyme reaction buffer is made using sterile water (Baxter, Deerfield, Ill.) and 50 mM Tris HCl pH 7, 14 mM MgCl2, 2 mM sodium cholate, and 100 mM NaCl. 2 mM DTT is added fresh the day of the experiment. The AlphaScreen® reaction buffer is made using sterile water and 10 mM Tris HCl pH 7.5, 150 mM NaCl, 0.10% Tween 20, and 30 mM EDTA. 1 mM DTT is added fresh the day of the experiment. The source plates for this assay are 384-well Greiner clear polypropylene plates containing test compounds at 5 mM and diluted 1:2 over 22 points. Columns 23 and 24 contain only DMSO as these are designated for positive and negative controls. Source plates are replicated into 384-well Optiplates (PerkinElmer, Waltham, Mass.), 0.5 μL/well, to make assay-ready plates. The different PI3K isoforms are each diluted in enzyme reaction buffer to 2× working solutions. PI3Kα is diluted to 1.6 nM, PI3Kβ is diluted to 0.8 nM, PI3Kγ is diluted to 15 nM, and PI3Kδ is diluted to 1.6 nM. Two different 2× substrate solutions are made in enzyme reaction buffer. In one solution, PI(4,5)P2 (Echelon Biosciences, Salt Lake City, Utah) is diluted to 10 μM and ATP is diluted to 20 μM. This solution is used in the assays testing PI3Kα and PI3Kβ. In a second solution, PI(4,5)P2 is diluted to 10 μM and ATP is diluted to 80 μM. This solution is used in the assays testing PI3Kγ and PI3Kδ. The AlphaScreen® reaction solutions are made using beads from the anti-GST AlphaScreen® kit (PerkinElmer, Waltham, Mass.). Two solutions are made in Alphascreen reaction buffer to 4× working concentrations. In one solution, biotinylated-IP4 (Echelon Biosciences, Salt Lake City, Utah) is diluted to 40 nM and streptavadin-Donor Beads are diluted to 80 μg/mL. In the second solution, PIP3-binding protein (Echelon Biosciences, Salt Lake City, Utah) is diluted to 40 nM and anti-GST-Acceptor Beads are diluted to 80 μg/mL. 10 μL/well of enzyme reaction buffer is added to Column 24 of the assay ready plates in place of enzyme. This is done for plates in the PI3Kα, β, and δ assays. Using a 384-well dispensing Multidrop (Titertek, Huntsville, Ala.), 10 μL/well of 2× enzyme (PI3Kα, β, δ) is added to Columns 1-23 of the appropriate assay ready plates (for PI3Kγ 10 μL is added to Columns 1-24). 10 μL/well of the appropriate substrate solution (the solution with 20 μM ATP for PI3Kα and β assays, and the solution with […] for PI3Kγ and δ assays) is then added to Columns 1-24 of the plates. Plates are then incubated at room temperature for 20 minutes. In the dark, 10 μL/well of the Donor Bead solution is added to Columns 1-24 of the plates to quench the enzyme reaction. The plates are incubated at room temperature for 30 minutes. Still in the dark, 10 μL/well of the Acceptor Bead solution is also added to Columns 1-24 of the plates. The plates are then incubated in the dark for 1.5 hours.

[3] = test system: phosphorylation of Akt at Serine 473 in U87 MG cells; test: pAkt AlphaScreen (U87 cell); type: cell-based; settings: Homo sapiens, U-87 MG, 2 h; pAkt at Serine 473, U87 MG cells, two hours with compound
Procedure: The pAkt AlphaScreen® assay (PerkinElmer, Waltham, Mass.) determines whether there is phosphorylation of Akt at Serine 473 by recruitment of a phosphospecific antibody. This assay was performed using U87 MG cells. The U87 growth media consists of MEM (Gibco, Carlsbad, Calif.) supplemented with 10% FBS (Gibco), 1× Non-Essential Amino Acids (Gibco,) and 1× Penicillin/Streptomycin/Glutamine (Gibco). The cells were maintained weekly using 0.05% Trypsin (Gibco) and replated in 150 mm TC— Treated Culture Dishes (Corning, Corning, N.Y.).
The first day of the assay, the adherent cells were trypsinized, media was added to the loose cells and cells were mixed to a homogenous mixture. 0.5 ml of the homogenous mixture was counted on the Beckman Coulter® Vi-Cell™ XR (Fullerton, Calif.). 50 frames of cells were counted and the number of viable cells was determined. The cells were then diluted to 0.25 million cells per ml, and centrifuged at 200 rcf for 5 minutes. The media was removed and the cells were reconstituted in fresh media for plating. The cells were plated at 20 μl per well on the PerkinElmer® FlexDrop PLUS in Low Volume 384 Well White Tissue Culture Plates (Corning) with a final cell density of 5K cells per well. The plates were incubated overnight at 37° Celsius, 5% CO2.
On the second day, the compound plates were prepared, the cells were treated with compound and the pAkt reaction mix was added to the cell lysate. 384 well compound plates were prepared containing 1 μl of compound per well starting at 5 mM and diluted 1:2 across the row, resulting in a 22 well serial dilution. 39 μl of growth media was added to the compound plate in rows 1-22 using the PerkinElmer® FlexDrop PLUS resulting in a DMSO concentration of 2.5%. The cell plates and diluted compound plates were put onto the VELOCITY11™ VPREP™ 384 ST where the compound plate was mixed and 5 μl of serially diluted compound or controls was added to the cell plate. The final concentration of the compounds was 25 μM serially diluted to 11.9 pM in 0.5% DMSO.
The cell plates were then incubated with compound for two hours at 37° C., 5% CO2. After two hours, the media in the cell plates was aspirated using the BioTek® ELx405HT plate washer (Winooski, Vt.) removing the majority of media and compound without disturbing the adherent U87 cells. The following assay reagents are components of the SureFire® Akt (Ser 473) Phosphorylation 50K Point Kit (TGR BioSciences, Adelaide, Austalia) and an IgG Detection Kit (PerkinElmer, Waltham, Mass.). 5 μl of 1× Lysis Buffer was added to each well using the PerkinElmer® FlexDrop PLUS. The plates were then incubated at room temperature on a shaker for ten minutes. The AlphaScreen® reaction was prepared under low light conditions (subdued or green light) including p-Aid (Ser 473) Reaction Buffer, Dilution Buffer, Activation Buffer, Acceptor Beads and Donor Beads at a ratio of 40:20:10:1:1 respectively. The AlphaScreen® reaction was added to the cell lysate at 6 μl per well using the PerkinElmer® FlexDrop PLUS. The plates were placed in a humid environment to reduce edge effects and incubated overnight at room temperature with restricted air flow in the dark.
On the final day of the experiment, the plates were read on the PerkinElmer® EnVision™ 2103 Multilable Reader using the standard AlphaScreen® readout. The POC is calculated and the data is analyzed to report the IC50 IP for pAkt at Serine 473.
Activity data for the compounds tested in the PI3K cell based Akt assay is provided in Table 1 under the column heading U87

| Structure (SMILES) | IC50 [1] | IC50 [2] | IC50 [3] |
| --- | --- | --- | --- |
| Cc1nc(N)nc(-c2c(Nc3ccn(C(=O)NCCO)n3)nc3ccccn23)n1 [Cpd 198, 3-((3-(4-amino-6-methyl-1,3,5-triazin-2-yl)imidazo[1,2-a]pyridin-2-yl)amino)-N-(2-hydroxyethyl)-1H-pyrazole-1-carboxamide] | 110 nM | 2210 nM | – |
| Cc1nc(N)nc(-c2c(Nc3ccnn3C(=O)N3CCOCC3)nc3ccccn23)n1 [Cpd 201] | 250 nM | 1390 nM | – |
| Cc1nc(N)cc(-c2c(Nc3ccn(S(C)(=O)=O)n3)nc3ccccn23)n1 [Cpd 217, 3-(6-amino-2-methyl-4-pyrimidinyl)-N-(1-(methylsulfonyl)-1H-pyrazol-3-yl)imidazo[1,2-a]pyridin-2-amine] | 1740 nM | – | 1180 nM |
| CNCCNC(=O)n1ccc(Nc2nc3cccnn3c2-c2cc(N)nc(C)n2)n1 [Cpd 258] | 500 nM | 30 nM | – |
